The values below come from patent US12590075B2, “Refining method” (NGK Insulators, Ltd., priority 2020, dated 2026).

This data set is described as follows: Dissolution time / dissolution rate of the raw material in a solvent (stereoscopic microscope, heating stage). The following applies: heating stage 50±5° C., order of solvents; for Dissolution rate of the raw material (Arranged in order from the fastest to the slowest): 25 mg compound in 2 mL solvent. The format is physicochemical. On the procedure: The dissolution time of the raw material of febuxostat in a solvent was examined as described below. […] First, a heating stage ([…], Mettler) was installed in a stereoscopic microscope (SZX16, Olympus Corporation), and the surface temperature of the heating stage was maintained at 50±5° C. 25 mg of febuxostat (product code […], Tokyo Chemical Industry Co., Ltd.) was weighed into a flat laboratory dish (φ32 mm×16 mm), and 2 mL of the solvent was weighed and added to the laboratory dish, which was then immediately covered with a glass lid. The laboratory dish was placed on the heating stage. […] As a result, the dissolution time was ethanol<2-propanol<acetonitrile (in other words, the dissolution rate was ethanol>2-propanol>acetonitrile). […] The dissolution times of the raw materials of loxoprofen and diclofenac in the solvents were also examined in the same manner as febuxostat.

Consider `O=C(O)Cc1ccccc1Nc1c(Cl)cccc1Cl` [Diclofenac, diclofenac], for which the “Dissolution rate of the raw material (Arranged in order from the fastest to the slowest)” value (“Dissolution rate of the raw material” below) was “Ethanol, Ethanol/IPA^※1”.

On to `Cc1nc(-c2ccc(OCC(C)C)c(C#N)c2)sc1C(=O)O` [Febuxostat, febuxostat], for which the “Dissolution rate of the raw material” value is on record as “Ethanol, 2-propanol, Acetonitrile”. Besides, for the setting “listed as febuxostat”, the “Dissolution rate of the raw material” value is “ethanol>2-propanol>acetonitrile”. Besides, the dissolution time result (25 mg in 2 mL solvent, time until no undissolved material observed) is recorded as “ethanol<2-propanol<acetonitrile”.

Turning to `CC(C(=O)O)c1ccc(CC2CCCC2=O)cc1` (centres unmarked) [Loxoprofen, loxoprofen], the “Dissolution rate of the raw material” value is recorded as “Ethanol, 2-propanol”.
